Reference: patent US9597314B2, “Beta-lactamylalkanoic acids for treating premenstrual disorders” (AZEVAN PHARMACEUTICALS, INC., priority 2005, dated 2017)

Biological target: V1a (Homo sapiens, UniProt P37288)
Test: Human vasopression V1a receptor binding assay
Design: host or cells: CHO cells (hV1a cell line), whole adherent cells
Conditions: hV1a cell line (CHO); for Ki: Table 18; for IC50: 1 nM 3H-AVP, Table 17, read-out: V1a Binding Affinity (IC50 (nM))
Protocol: Human vasopression V1a receptor binding assay. A cell line expressing the human V1a receptor in CHO cells (henceforth referred to as the hV1a cell line) was obtained from Dr. Michael Brownstein, NIMH, Bethesda, Md., USA. The hV1a cDNA sequence is described by Thibonnier et al., Journal of Biological Chemistry, 269, 3304-3310 (1994), and the expression method was the same as described by Morel et al. (1992). The hV1a cell line was grown in alpha-MEM with 10% fetal bovine serum and 250 ug/ml G418 (Gibco, Grand Island, N.Y., USA). For competitive binding assay, hV1a cells were plated into 6-well culture plate at 1:10 dilution from a confluency flask, and maintained in culture for at least two days. Culture medium was then removed, cells were washed with 2 ml binding buffer (25 mM Hepes, 0.25% BSA, 1×DMEM, PH=7.0). To each well, 990 μl binding buffer containing 1 nM 3H-AVP was added, and followed by 10 μl series diluted Example compounds dissolved in DMSO. […] 100 nM cold AVP (Sigma) was used to assess non-specific binding. Cells were incubated for 45 minutes at 37° C., assay mixture was removed and each well was washed three times with PBS (pH=7.4). 1 ml 2% SDS was added per well and plates were let sit for 30 minutes. The whole content in a well was transferred to a scintillation vial. Each well was rinsed with 0.5 ml PBS which was then added to the corresponding vial. Scintillation fluid (Ecoscint, National Diagnostics, Atlanta, Ga.) was then added at 3 ml per vial. Samples were counted in a liquid scintillation counter (Beckman LS3801). IC50 values were calculated by Prism Curve fitting software.
All of the alkanedioic esters and amides exemplified in the foregoing examples dissolved in DMSO were tested in this assay. Binding curves were generated according to methods described by Thibonnier et al. (1994). [^3H]-AVP was added to the hV1a cell cultures followed by 10 fold dilutions of each test compound.

V1a, sequence (P37288 whole entry): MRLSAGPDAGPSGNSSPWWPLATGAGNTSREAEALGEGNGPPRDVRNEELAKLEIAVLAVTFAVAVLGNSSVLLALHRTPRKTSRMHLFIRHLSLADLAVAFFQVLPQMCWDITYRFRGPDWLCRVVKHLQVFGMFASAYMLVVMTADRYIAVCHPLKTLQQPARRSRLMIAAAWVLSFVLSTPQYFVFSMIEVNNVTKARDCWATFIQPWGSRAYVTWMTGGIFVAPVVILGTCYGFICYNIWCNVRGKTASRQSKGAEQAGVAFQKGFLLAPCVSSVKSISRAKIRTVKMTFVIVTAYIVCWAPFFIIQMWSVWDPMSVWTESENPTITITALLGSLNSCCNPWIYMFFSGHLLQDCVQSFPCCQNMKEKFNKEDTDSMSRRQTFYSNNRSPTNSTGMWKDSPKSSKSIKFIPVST

Row | Ki | IC50 | Structure (SMILES)
1 | 3.39 nM |  | O=C(NCc1cccc(C(F)(F)F)c1)C(C(=O)N1CCC(N2CCCCC2)CC1)N1C(=O)[C@@H](N2C(=O)OC[C@@H]2c2ccccc2)[C@H]1/C=C/c1ccccc1 (mixture of isomers) [Example 37]
2 | 85 nM |  | O=C(NCc1cccc(C(F)(F)F)c1)C(C(=O)N1CCN(CCc2ccccc2)CC1)N1C(=O)[C@@H](N2C(=O)OC[C@@H]2c2ccccc2)[C@H]1/C=C/c1ccccc1 (mixture of isomers) [Example 38]
3 | 13.3 nM |  | O=C(NCc1cccc(C(F)(F)F)c1)C(C(=O)NC1CCN(Cc2ccccc2)CC1)N1C(=O)[C@@H](N2C(=O)OC[C@@H]2c2ccccc2)[C@H]1/C=C/c1ccccc1 (mixture of isomers) [Example 39]
4 | 6.5 nM |  | CCCCN1CCN(C(=O)C(C(=O)NCc2cccc(C(F)(F)F)c2)N2C(=O)[C@@H](N3C(=O)OC[C@@H]3c3ccccc3)[C@H]2/C=C/c2ccccc2)CC1 (mixture of isomers) [Example 40]
5 | 18.2 nM |  | CC(C)N1CCN(C(=O)C(C(=O)NCc2cccc(C(F)(F)F)c2)N2C(=O)[C@@H](N3C(=O)OC[C@@H]3c3ccccc3)[C@H]2/C=C/c2ccccc2)CC1 (mixture of isomers) [Example 41]
6 | 1.17 nM | 1.77 nM | O=C(NCc1cccc(C(F)(F)F)c1)C(C(=O)N1CCC(CCN2CCCCC2)CC1)N1C(=O)[C@@H](N2C(=O)OC[C@@H]2c2ccccc2)[C@H]1/C=C/c1ccccc1 (mixture of isomers) [Example 42A]
7 | 26.4 nM |  | O=C(NCc1cccc(C(F)(F)F)c1)C(C(=O)N1CCN(C2CCCCC2)CC1)N1C(=O)[C@@H](N2C(=O)OC[C@@H]2c2ccccc2)[C@H]1/C=C/c1ccccc1 (mixture of isomers) [Example 42]
8 | 1.25 nM | 2.04 nM | O=C(C(COCc1ccccc1)N1C(=O)[C@@H](N2C(=O)OC[C@@H]2c2ccccc2)[C@H]1/C=C/c1ccccc1)N1CCN(C2CCCCC2)CC1 (mixture of isomers) [Example 232D]
9 | 0.49 nM |  | CCCCN1CCN(C(=O)CCC(C(=O)NCc2cccc(C(F)(F)F)c2)N2C(=O)C(N3C(=O)OCC3c3ccccc3)C2C=Cc2ccccc2)CC1 (single isomer, unassigned) [Example 103]
10 | 1.13 nM |  | CC(C)N1CCN(C(=O)CCC(C(=O)NCc2cccc(C(F)(F)F)c2)N2C(=O)C(N3C(=O)OCC3c3ccccc3)C2C=Cc2ccccc2)CC1 (single isomer, unassigned) [Example 104]
11 | 1.14 nM | 1.86 nM | O=C(NC1CCCc2ccccc21)C(CCC(=O)N1CCN(C2CCCCC2)CC1)N1C(=O)C(N2C(=O)OCC2c2ccccc2)C1C=Cc1ccccc1 (single isomer, unassigned) [Example 214]
12 | 0.38 nM | 0.61 nM | O=C(NC1CCCc2ccccc21)C(CCC(=O)N1CCN(C2CCCCC2)CC1)N1C(=O)C(N2C(=O)OCC2c2ccccc2)C1C=Cc1ccccc1 (single isomer, unassigned) [Example 215]
13 | 1.13 nM |  | O=C(C[C@@H](C(=O)NCc1cccc(C(F)(F)F)c1)N1C(=O)[C@@H](N2C(=O)OC[C@@H]2c2ccccc2)[C@H]1/C=C/c1ccccc1)NC1CCN(Cc2ccccc2)CC1 [Example 63]
14 | 5.12 nM |  | O=C(NCc1cccc(C(F)(F)F)c1)[C@H](CC(=O)N1CCCN(Cc2ccccc2)CC1)N1C(=O)[C@@H](N2C(=O)OC[C@@H]2c2ccccc2)[C@H]1/C=C/c1ccccc1 [Example 82]
15 | 3.6 nM |  | O=C(C[C@@H](C(=O)NCc1cccc(C(F)(F)F)c1)N1C(=O)[C@@H](N2C(=O)OC[C@@H]2c2ccccc2)[C@H]1/C=C/c1ccccc1)N[C@H]1CCN(Cc2ccccc2)C1 [Example 85]
16 | 6 nM | 9.79 nM | O=C(NCc1cccc(C(F)(F)F)c1)[C@H](CC(=O)N1CCC(CCN2CCCCC2)CC1)N1C(=O)[C@@H](N2C(=O)OC[C@@H]2c2ccccc2)[C@H]1/C=C/c1ccccc1 [Example 86A]
17 | 1.08 nM |  | O=C(NCc1cccc(C(F)(F)F)c1)[C@H](CCC(=O)N1CCN(Cc2ccccc2)CC1)N1C(=O)[C@@H](N2C(=O)OC[C@@H]2c2ccccc2)[C@H]1/C=C/c1ccccc1 [Example 95]
18 | 2.66 nM |  | O=C(NCc1cccc(C(F)(F)F)c1)[C@H](CCC(=O)N1CCN(Cc2ccc3c(c2)OCO3)CC1)N1C(=O)[C@@H](N2C(=O)OC[C@@H]2c2ccccc2)[C@H]1/C=C/c1ccccc1 [Example 96]
19 | 0.82 nM |  | O=C(NCc1cccc(C(F)(F)F)c1)[C@H](CCC(=O)N1CCN(CCC2CCCCC2)CC1)N1C(=O)[C@@H](N2C(=O)OC[C@@H]2c2ccccc2)[C@H]1/C=C/c1ccccc1 [Example 111]

Row | Ki | IC50 | Structure (SMILES)
20 | 0.8 nM |  | O=C(NCc1cccc(C(F)(F)F)c1)[C@H](CCC(=O)N1CCN(CCN2CCOCC2)CC1)N1C(=O)[C@@H](N2C(=O)OC[C@@H]2c2ccccc2)[C@H]1/C=C/c1ccccc1 [Example 112]
21 | 9.9 nM | 16.2 nM | O=C(NCc1cccc(C(F)(F)F)c1)[C@H](CCC(=O)N1CCC(CCN2CCCCC2)CC1)N1C(=O)[C@@H](N2C(=O)OC[C@@H]2c2ccccc2)[C@H]1/C=C/c1ccccc1 [Example 120A]
22 | 1.79 nM | 2.93 nM | CCCN1CCN(C(=O)CC[C@@H](C(=O)NCc2cccc(C(F)(F)F)c2)N2C(=O)[C@@H](N3C(=O)OC[C@@H]3c3ccccc3)[C@H]2/C=C/c2ccccc2)CC1 [Example 120B]
23 | 0.46 nM |  | O=C(NCc1cccc(C(F)(F)F)c1)[C@H](CCC(=O)N1CCN(CC2CCCCC2)CC1)N1C(=O)[C@@H](N2C(=O)OC[C@@H]2c2ccccc2)[C@H]1/C=C/c1ccccc1 [Example 120]
24 | 3.9 nM | 6.3 nM | O=C(NC1(c2ccccc2)CCCC1)[C@H](CC(=O)N1CCC(N2CCCCC2)CC1)N1C(=O)[C@@H](N2C(=O)OC[C@@H]2c2ccccc2)[C@H]1/C=C/c1ccccc1 [Example 132D]
25 | 7.9 nM | 12.9 nM | O=C(NCc1cccc(C(F)(F)F)c1)[C@@H](CC(=O)N1CCC(CCN2CCCCC2)CC1)N1C(=O)[C@@H](N2C(=O)OC[C@@H]2c2ccccc2)[C@H]1/C=C/c1ccccc1 [Example 134A]
26 | 5.58 nM | 9.1 nM | O=C(C[C@H](C(=O)NCc1cccc(C(F)(F)F)c1)N1C(=O)[C@@H](N2C(=O)OC[C@@H]2c2ccccc2)[C@H]1/C=C/c1ccccc1)NC1CCN(Cc2ccccc2)CC1 [Example 134C]
27 | 3.7 nM | 6 nM | O=C(NCc1cccc(C(F)(F)F)c1)[C@@H](CC(=O)N1CCC(CN2CCCCC2)CC1)N1C(=O)[C@@H](N2C(=O)OC[C@@H]2c2ccccc2)[C@H]1/C=C/c1ccccc1 [Example 134G]
28 | 3.25 nM | 5.29 nM | CC(C)(NC(=O)[C@@H](CC(=O)N1CCC(N2CCCCC2)CC1)N1C(=O)[C@@H](N2C(=O)OC[C@@H]2c2ccccc2)[C@H]1/C=C/c1ccccc1)c1ccccc1 [Example 134J]
29 | 33 nM |  | O=C(NCc1cccc(C(F)(F)F)c1)[C@@H](CCC(=O)N1CCN(CCc2ccccc2)CC1)N1C(=O)[C@@H](N2C(=O)OC[C@@H]2c2ccccc2)[C@H]1/C=C/c1ccccc1 [Example 136]
30 | 10.5 nM |  | CCCCN1CCN(C(=O)CC[C@H](C(=O)NCc2cccc(C(F)(F)F)c2)N2C(=O)[C@@H](N3C(=O)OC[C@@H]3c3ccccc3)[C@H]2/C=C/c2ccccc2)CC1 [Example 137]
31 | 13 nM |  | CC(C)N1CCN(C(=O)CC[C@H](C(=O)NCc2cccc(C(F)(F)F)c2)N2C(=O)[C@@H](N3C(=O)OC[C@@H]3c3ccccc3)[C@H]2/C=C/c2ccccc2)CC1 [Example 138]
32 | 5.84 nM |  | O=C(NCc1cccc(C(F)(F)F)c1)[C@@H](CCC(=O)N1CCN(C2CCCCC2)CC1)N1C(=O)[C@@H](N2C(=O)OC[C@@H]2c2ccccc2)[C@H]1/C=C/c1ccccc1 [Example 139]
33 | 2.78 nM | 4.5 nM | O=C(NCc1cccc(OC(F)(F)F)c1)[C@H](CCC(=O)N1CCN(C2CCCCC2)CC1)N1C(=O)[C@@H](N2C(=O)OC[C@@H]2c2ccccc2)[C@H]1/C=C/c1ccccc1 [Example 172]
34 |  | < 100 nM | O=C(NCc1ccc(Cl)c(Cl)c1)[C@H](CCC(=O)N1CCN(C2CCCCC2)CC1)N1C(=O)[C@@H](N2C(=O)OC[C@@H]2c2ccccc2)[C@H]1/C=C/c1ccccc1 [Example 173]
35 | 0.89 nM | 1.46 nM | O=C(NCc1cc(Cl)cc(Cl)c1)[C@H](CCC(=O)N1CCN(C2CCCCC2)CC1)N1C(=O)[C@@H](N2C(=O)OC[C@@H]2c2ccccc2)[C@H]1/C=C/c1ccccc1 [Example 174]
36 | 2.79 nM | 4.56 nM | O=C(NCc1cc(Cl)ccc1Cl)[C@H](CCC(=O)N1CCN(C2CCCCC2)CC1)N1C(=O)[C@@H](N2C(=O)OC[C@@H]2c2ccccc2)[C@H]1/C=C/c1ccccc1 [Example 175]
37 |  | 0.61 nM | O=C(NCc1cccc(Cl)c1Cl)[C@H](CCC(=O)N1CCN(C2CCCCC2)CC1)N1C(=O)[C@@H](N2C(=O)OC[C@@H]2c2ccccc2)[C@H]1/C=C/c1ccccc1 [Example 176]
